Here are results for ten compounds from patent publication US9663464B2, “Carbazole derivatives acting on 5-HT7 receptor” (KOREA INSTITUTE OF SCIENCE AND TECHNOLOGY, priority 2015, dated 2017).

The target in test [1] is T1, human gene recombinant 5-HT7 receptor expressed in CHO cells (Homo sapiens, UniProt P34969).
T1 construct: expressed in transfected cells; host or cells: CHO cells (membrane preparation)
Put plainly: Binding affinity for the 5-HT7 serotonin receptor ([3H]LSD radioligand). How it is done:
In this example, the human gene recombinant 5-HT7 receptor expressed in CHO cells was used. 1 nM [^3H]LSD, 5-HT7 receptor membrane (15 μg/well), a test drug, 10 mM MgCl2, 50 mM Tris-HCl buffer (pH 7.4) containing 0.1 mM EDTA, etc. were added to a vessel until the final volume reached 0.25 ml. The test drug was used at various concentrations. The mixture was cultured at 25° C. for 90 min. The culture was rapidly filtered through a Whatman GF/C glass fiber filter, which had been previously wetted with 0.3% polyethyleneimine using a Brandel harvester, to quench the reaction. The reaction mixture was washed with cold 50 mM Tris-HCl buffer. The filter was covered with MeltiLex, sealed in a sample bag, and dried in an oven. Counting was performed using MicroBeta (Wallac) and nonspecific binding was measured in the presence of […]. The K value of the test drug was obtained from nonlinear regression analysis (GraphPad Prism Program, San Diego, USA) of isotherms obtained by repeatedly performing the experiment on the drug at 10-11 stage concentrations in two test tubes (each twice).
The % inhibition values of the inventive compounds having different Y structures at a concentration of 10 μM against the 5-HT7 serotonin receptor were measured. Further, the binding affinity (Ki) values of the inventive compounds having different Y structures at a concentration of 10 μM for the 5-HT7 serotonin receptor were measured.

The target of test [2] is T2, 5-HT2C (Homo sapiens, UniProt P28335).
T2 sequence (P28335 33-458): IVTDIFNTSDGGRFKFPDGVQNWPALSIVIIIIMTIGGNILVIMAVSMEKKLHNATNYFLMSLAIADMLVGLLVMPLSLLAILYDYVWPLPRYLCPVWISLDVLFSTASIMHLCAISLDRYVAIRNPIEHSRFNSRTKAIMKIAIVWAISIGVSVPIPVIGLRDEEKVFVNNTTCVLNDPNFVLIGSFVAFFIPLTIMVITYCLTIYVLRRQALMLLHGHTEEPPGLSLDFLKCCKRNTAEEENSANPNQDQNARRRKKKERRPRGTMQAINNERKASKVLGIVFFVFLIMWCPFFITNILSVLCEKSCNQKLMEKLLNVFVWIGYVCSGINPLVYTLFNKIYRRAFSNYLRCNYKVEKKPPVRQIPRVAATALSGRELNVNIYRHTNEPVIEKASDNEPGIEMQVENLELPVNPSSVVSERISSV
Put plainly: 5-HT2C receptor inhibition/binding (Tables 1-3).

In test [3] the target is 5-HT6 (Homo sapiens, UniProt P50406). Put plainly: 5-HT6 receptor inhibition/binding (Tables 2-3).
Test [4] deals with Rats. Put plainly: Antagonism against migraine: leakage of fluorescent protein (FITC-BSA) from meningeal vessels. The test is classed as in vivo. How it is done: It is known that inflammatory proteins leaked from meningeal vessels by 5-HT are implicated in causing migraine. The amount of the proteins leaked in the presence of the compound of Example 2.10 was measured and the preventive effect of the compound on migraine was assessed by a partial modification of the method described in the literature [Rachel A. Spokes, Vicki C. Middlefell, European Journal of Pharmacology (1995) 281, 75-79]. SB-269970, which is known as a 5-HT7 receptor antagonizing compound (J. Med. Chem. (2000) 43, 342-345), was used as a comparative compound. A negative control free of […] was prepared. The fluorescence intensity of the negative control was defined as a reference value. As a positive control, physiological saline was added instead of the compound of Example 2-10.
Rats (350-450 g) were administered urethane (1.5 g/kg) intraperitoneally. 50 mg/kg of a fluorescent protein (FITC-BSA) was administered intravenously through a cannula introduced into the saphenous vein, and 1 μM […] was administered intravenously. SB-269970 and the compound of Example 2.10 were administered intraperitoneally. The cerebral lobes were separated and the meninges were drawn from each rat. The meninges were allowed to stand at 37° C. for 16 h in the presence of physiological saline at pH 11, followed by centrifugation. The supernatant was plated on plates. The fluorescence intensity was measured using a fluorescence leader (excitation wavelength 485 nm, […] wavelength 530 nm) and the meninges were weighed. The fluorescence intensity per mg of the meningeal proteins was calculated.

In test [5] the target is 5-HT1E (Homo sapiens, UniProt P28566). Kind of test: 5-HT1E receptor inhibition (Table 1). The class given is binding.

Broadly, the Ki is a dissociation constant, usually derived from enzyme kinetics or from competition with a known ligand. As a reminder, the inhibition is the change of the read-out against control, counted positive when it falls.

Where a name gives a salt, the structure may show the parent alone.

T1 sequence (P34969 whole entry): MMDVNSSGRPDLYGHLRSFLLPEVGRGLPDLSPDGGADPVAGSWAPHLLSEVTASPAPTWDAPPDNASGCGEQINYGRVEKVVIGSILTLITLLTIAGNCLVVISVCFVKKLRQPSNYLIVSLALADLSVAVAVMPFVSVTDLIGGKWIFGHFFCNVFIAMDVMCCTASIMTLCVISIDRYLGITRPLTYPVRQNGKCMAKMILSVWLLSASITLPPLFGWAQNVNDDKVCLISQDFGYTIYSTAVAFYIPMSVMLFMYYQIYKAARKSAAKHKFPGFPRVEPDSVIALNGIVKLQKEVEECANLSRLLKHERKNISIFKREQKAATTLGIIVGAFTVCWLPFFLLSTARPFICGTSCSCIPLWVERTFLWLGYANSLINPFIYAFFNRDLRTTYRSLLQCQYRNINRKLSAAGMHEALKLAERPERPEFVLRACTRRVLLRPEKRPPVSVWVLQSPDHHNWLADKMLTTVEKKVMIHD
5-HT6, sequence (P50406 whole entry, species assumed): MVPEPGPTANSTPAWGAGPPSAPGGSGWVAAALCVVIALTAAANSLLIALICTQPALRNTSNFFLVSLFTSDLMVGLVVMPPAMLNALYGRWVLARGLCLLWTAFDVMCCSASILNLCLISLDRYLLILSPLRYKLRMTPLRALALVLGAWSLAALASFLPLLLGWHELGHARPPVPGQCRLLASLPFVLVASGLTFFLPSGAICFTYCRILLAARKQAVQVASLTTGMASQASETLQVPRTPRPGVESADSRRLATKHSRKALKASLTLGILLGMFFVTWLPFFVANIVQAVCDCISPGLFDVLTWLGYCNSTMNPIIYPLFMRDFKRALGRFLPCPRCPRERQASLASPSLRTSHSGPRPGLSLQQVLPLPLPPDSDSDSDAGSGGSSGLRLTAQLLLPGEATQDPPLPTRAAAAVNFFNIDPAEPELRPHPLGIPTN
5-HT1E, sequence (P28566 whole entry, species assumed): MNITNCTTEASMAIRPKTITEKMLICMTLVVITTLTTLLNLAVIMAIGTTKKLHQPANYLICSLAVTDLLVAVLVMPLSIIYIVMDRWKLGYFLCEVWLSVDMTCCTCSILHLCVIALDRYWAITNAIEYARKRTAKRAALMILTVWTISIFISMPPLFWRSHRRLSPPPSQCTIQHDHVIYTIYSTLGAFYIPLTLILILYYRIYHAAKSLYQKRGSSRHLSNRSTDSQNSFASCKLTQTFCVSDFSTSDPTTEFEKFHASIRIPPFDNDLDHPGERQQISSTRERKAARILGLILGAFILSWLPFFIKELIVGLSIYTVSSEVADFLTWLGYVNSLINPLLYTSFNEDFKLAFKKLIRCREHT

Turning to `O=C(CCCCCN1CCC(c2ccccc2)CC1)n1c2ccccc2c2ccccc21` [Example 2.9, 1-(9H-carbazol-9-yl)-6-(4-phenylpiperidin-1-yl)hexan-1-one hydrochloride], the Ki in test [1] was 157 nM; in test [2] it was 758 nM; in test [3] it was 373 nM. The inhibition at 10 µM was 99.8% in test [1], 55.3% in test [2] and 92.2% in test [3]. For the same compound, in test [4] (5 mg/kg to 20 mg/kg), the “protein leakage vs reference value” is on record as “suppressed to a level close to the reference value”.
For `O=C(CCCCCN1CCC(Cc2ccccc2)CC1)n1c2ccccc2c2ccccc21` [Example 2.10, 6-(4-Benzylpiperidin-1-yl)-1-(9H-carbazol-9-yl)hexan-1-one hydrochloride], the inhibition constant (Ki) was 252 nM in test [1], 683 nM in test [2] and 354 nM in test [3]. Further, the figures for the inhibition at 10 µM in test [1], in test [2] and in test [3] were 103%, 70.4% and 91.9%, respectively. The “amount of the proteins leaked (meningeal fluorescence intensity) vs reference value” in test [4] (intraperitoneal, 3 mg/kg) is on record as “effectively suppressed to a level close to the reference value”.
On to `CN(CCCCC(=O)n1c2ccccc2c2ccccc21)Cc1ccccc1` [Example 2.18, 5-(Benzyl(methyl)amino)-1-(9H-carbazol-9-yl)pentan-1-one hydrochloride], for which, in test [1], the inhibitory constant (Ki) is 513 nM. Besides, the inhibition at 10 µM was 83.1% in test [1], -22.5% in test [5] and 32.6% in test [2].
In the same order, the values of `O=C(CCCCN1CCCC1)n1c2ccccc2c2ccccc21` [Example 2.19, 1-(9H-carbazol-9-yl)-5-(pyrrolidin-1-yl)pentan-1-one hydrochloride] are 2160 nM, 57.4%, 16.3% and 45%.
Regarding `CC1CCN(CCCCC(=O)n2c3ccccc3c3ccccc32)CC1` [Example 2.20, 1-(9H-carbazol-9-yl)-5-(4-methylpiperidin-1-yl)pentan-1-one hydrochloride], the Ki in test [1] is 592 nM. The inhibition at 10 µM is 80.2% in test [1], -19.3% in test [5] and 44.4% in test [2].
Taken in the same sequence, the figures for `CC1CCCN(CCCCC(=O)n2c3ccccc3c3ccccc32)C1` (stereo not shown) [Example 2.21, 1-(9H-carbazol-9-yl)-5-(3-methylpiperidin-1-yl)pentan-1-one hydrochloride] were 883 nM, 69.4%, -6% and 50%.
Regarding `CC1CC(C)CN(CCCCC(=O)n2c3ccccc3c3ccccc32)C1` (stereo not shown) [Example 2.22, 1-(9H-carbazol-9-yl)-5-(3,5-dimethylpiperidin-1-yl)pentan-1-one hydrochloride], the values for the inhibition constant Ki in test [1] and in test [2] were 1400 nM and 852 nM, respectively. Moreover, the inhibition at 10 µM in test [1] is 67.6%; in test [5], -10.5%; in test [2], 52.1%.
In the same order, the values of `O=C(CCCCN1CCCCCC1)n1c2ccccc2c2ccccc21` [Example 2.23, 5-(Azepan-1-yl)-1-(9H-carbazol-9-yl)pentan-1-one hydrochloride] are 949 nM, 1090 nM, 77%, -11.7% and 55%.
Consider `CCCCN(C)CCCCCCn1c2ccccc2c2ccccc21` [Example 2.35, N-Butyl-6-(9H-carbazol-9-yl)-N-methylhexane-1-amine], for which the Ki in test [1] amounted to 511 nM. The inhibition at 10 µM in test [1] was 70.7%; in test [5] it was 55.7%; in test [2] it was 59.4%.
In the case of `CC1CCN(CC[C@H]2CCCN2S(=O)(=O)c2cccc(O)c2)CC1` [SB-269970, reference compound], in test [4] (intraperitoneal, 10 mg/kg), the “amount of the proteins leaked (meningeal fluorescence intensity)” value is “reduced the amount of the proteins leaked”. Further, the “amount of the proteins leaked (meningeal fluorescence intensity) vs reference value” in test [4] (intraperitoneal, 30 mg/kg) was “not lowered down to the reference value”.
